Target: human Cereblon WT GST-tagged protein (Homo sapiens (Human), UniProt Q96SW2)
Test: CRBN-binding affinity, HTRF (CEREBLON BINDING kit)
How it was run: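 HTRF competition readout: compounds compete with a thalidomide-Re conjugate for GST-tagged wild-type human CRBN detected via Eu-labelled anti-GST antibody. Inhibition rate derived relative to protein-free blank wells.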

Sequence of human Cereblon WT GST-tagged protein (Q96SW2 whole entry): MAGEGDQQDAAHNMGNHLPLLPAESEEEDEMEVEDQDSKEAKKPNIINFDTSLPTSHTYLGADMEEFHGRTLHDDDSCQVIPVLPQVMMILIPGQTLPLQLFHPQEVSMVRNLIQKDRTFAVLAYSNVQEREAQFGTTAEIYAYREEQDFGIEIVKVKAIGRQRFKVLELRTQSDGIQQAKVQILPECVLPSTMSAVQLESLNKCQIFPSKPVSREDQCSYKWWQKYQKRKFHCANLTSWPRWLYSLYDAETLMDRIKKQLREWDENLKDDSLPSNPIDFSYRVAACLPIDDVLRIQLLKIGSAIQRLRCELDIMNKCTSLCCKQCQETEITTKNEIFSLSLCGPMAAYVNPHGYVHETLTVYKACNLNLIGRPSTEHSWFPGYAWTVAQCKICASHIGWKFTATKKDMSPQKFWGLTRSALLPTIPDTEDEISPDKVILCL

IC50 | SMILES
700 nM | O=C1CCC(N2Cc3cc(CN4CC5CN(C(=O)c6ccccc6-c6ccc(Cl)cc6)CC5C4)ccc3C2=O)C(=O)N1 (stereo not drawn) [GT-05645, 3-(5-((5-(4′-chloro-[1,1′-biphenyl]-2-carbonyl)hexahydropyrrolo[3,4-c]pyrrol-2(1H)-yl)methyl)-1-oxoisoindolin-2-yl)piperidine-2,6-dione]
1060 nM | CC1(C)CCC(CN2CC3CN(Cc4ccc5c(c4)CN(C4CCC(=O)NC4=O)C5=O)CC3C2)=C(c2ccc(Cl)cc2)C1 (stereo not drawn) [GT-05653, 3-(5-((5-((4′-chloro-5,5-dimethyl-3,4,5,6-tetrahydro-[1,1′-biphenyl]-2-yl)methyl)hexahydropyrrolo[3,4-c]pyrrol-2(1H)-yl)methyl)-1-oxoisoindolin-2-yl)piperidine-2,6-dione]
1090 nM | CC1(C)CCC(C(=O)N2CC3CCC2CN3C(=O)c2ccc3c(c2)CN(C2CCC(=O)NC2=O)C3=O)=C(c2ccc(Cl)cc2)C1 (stereo not drawn) [GT-05663, 3-(5-(5-(4′-chloro-5,5-dimethyl-3,4,5,6-tetrahydro-[1,1′-biphenyl]-2-carbonyl)-2,5-diazabicyclo[2.2.2]octane-2-carbonyl)-1-oxoisoindolin-2-yl)piperidine-2,6-dione]
1220 nM | O=C1CCC(N2Cc3cc(CN4CCN(C(=O)c5ccccc5-c5ccc(Cl)cc5)CC4)cc(F)c3C2=O)C(=O)N1 (stereo not drawn) [GT-05700, 3-(5-((4-(4′-chloro-[1,1′-biphenyl]-2-carbonyl)piperazin-1-yl)methyl)-7-fluoro-1-oxoisoindolin-2-yl)piperidine-2,6-dione]
1800 nM | O=C1CCC(N2Cc3c(CN4CCN(C(=O)c5ccccc5-c5ccc(Cl)cc5)CC4)cccc3C2=O)C(=O)N1 (stereo not drawn) [GT-05701, 3-(4-((4-(4′-chloro-[1,1′-biphenyl]-2-carbonyl)piperazin-1-yl)methyl)-1-oxoisoindolin-2-yl)piperidine-2,6-dione]
710 nM | O=C1CCC(N2Cc3cc(CN4CC5CC4CN5Cc4ccccc4-c4ccc(Cl)cc4)ccc3C2=O)C(=O)N1 (stereo not drawn) [GT-05707, 3-(5-((5-((4′-chloro-[1,1′-biphenyl]-2-yl)methyl)-2,5-diazabicyclo[2.2.1]heptan-2-yl)methyl)-1-oxoisoindolin-2-yl)piperidine-2,6-dione]
550 nM | O=C1CCC(N2Cc3cc(CN4CC5(C4)CN(C(=O)c4ccccc4-c4ccc(Cl)cc4)C5)ccc3C2=O)C(=O)N1 (stereo not drawn) [GT-05708, 3-(5-((6-(4′-chloro-[1,1′-biphenyl]-2-carbonyl)-2,6-diazaspiro[3.3]heptan-2-yl)methyl)-1-oxoisoindolin-2-yl)piperidine-2,6-dione]
1650 nM | O=C1CCC(N2C(=O)c3ccc(CN4CCN(Cc5ccncc5-c5ccc(Cl)cc5)CC4)cc3C2=O)C(=O)N1 (stereo not drawn) [GT-05731, 5-((4-((3-(4-chlorophenyl)pyridin-4-yl)methyl)piperazin-1-yl)methyl)-2-(2,6-dioxopiperidin-3-yl)isoindoline-1,3-dione]
420 nM | O=C1CCC(N2Cc3cc(CN4CC5CC4CN5C(=O)c4ccccc4-c4ccc(Cl)cc4)ccc3C2=O)C(=O)N1 (stereo not drawn) [GT-05776, 3-(5-((5-(4′-chloro-[1,1′-biphenyl]-2-carbonyl)-2,5-diazabicyclo[2.2.1]heptan-2-yl)methyl)-1-oxoisoindolin-2-yl)piperidine-2,6-dione]
710 nM | CC1(C)CCC(CN2CC3CCC2CN3Cc2cc(F)c3c(c2)CN(C2CCC(=O)NC2=O)C3=O)=C(c2ccc(Cl)cc2)C1 (stereo not drawn) [GT-05781, 3-(5-((5-((4′-chloro-5,5-dimethyl-3,4,5,6-tetrahydro-[1,1′-biphenyl]-2-yl)methyl)-2,5-diazabicyclo[2.2.2]octan-2-yl)methyl)-7-fluoro-1-oxoisoindolin-2-yl)piperidine-2,6-dione]

More lines, now with the values behind:

SMILES | IC50
O=C1CCC(N2Cc3cc(C(=O)N4C5CC4CN(Cc4ccccc4-c4ccc(Cl)cc4)C5)ccc3C2=O)C(=O)N1 (stereo not drawn) [GT-05643, 3-(5-(3-((4′-chloro-[1,1′-biphenyl]-2-yl)methyl)-3,6-diazabicyclo[3.1.1]heptane-6-carbonyl)-1-oxoisoindolin-2-yl)piperidine-2,6-dione] | 590 nM
CC1(C)CCC(C(=O)N2CC3CN(C(=O)c4ccc5c(c4)CN(C4CCC(=O)NC4=O)C5=O)CC3C2)=C(c2ccc(Cl)cc2)C1 (stereo not drawn) [GT-05659, 3-(5-(5-(4′-chloro-5,5-dimethyl-3,4,5,6-tetrahydro-[1,1′-biphenyl]-2-carbonyl)octahydropyrrolo[3,4-c]pyrrole-2-carbonyl)-1-oxoisoindolin-2-yl)piperidine-2,6-dione] | 660 nM
CC1(C)CCC(C(=O)N2C3CC2CN(Cc2ccc4c(c2)CN(C2CCC(=O)NC2=O)C4=O)C3)=C(c2ccc(Cl)cc2)C1 (stereo not drawn) [GT-05660, 3-(5-((6-(4′-chloro-5,5-dimethyl-3,4,5,6-tetrahydro-[1,1′-biphenyl]-2-carbonyl)-3,6-diazabicyclo[3.1.1]heptan-3-yl)methyl)-1-oxoisoindolin-2-yl)piperidine-2,6-dione] | 1040 nM
CC1(C)CCC(C(=O)N2C3CC2CN(C(=O)c2ccc4c(c2)CN(C2CCC(=O)NC2=O)C4=O)C3)=C(c2ccc(Cl)cc2)C1 (stereo not drawn) [GT-05661, 3-(5-(6-(4′-chloro-5,5-dimethyl-3,4,5,6-tetrahydro-[1,1′-biphenyl]-2-carbonyl)-3,6-diazabicyclo[3.1.1]heptane-3-carbonyl)-1-oxoisoindolin-2-yl)piperidine-2,6-dione] | 960 nM
O=C1CCC(N2Cc3c(ccc(CN4C5CC4CN(C(=O)c4ccccc4-c4ccc(Cl)cc4)C5)c3F)C2=O)C(=O)N1 (stereo not drawn) [GT-05666, 3-(5-((3-(4′-chloro-[1,1′-biphenyl]-2-carbonyl)-3,6-diazabicyclo[3.1.1]heptan-6-yl)methyl)-4-fluoro-1-oxoisoindolin-2-yl)piperidine-2,6-dione] | 690 nM
O=C1CCC(N2Cc3cc(CN4C5CC4CN(C(=O)c4ccccc4-c4ccc(Cl)cc4)C5)c(F)cc3C2=O)C(=O)N1 (stereo not drawn) [GT-05667, 3-(5-((3-(4′-chloro-[1,1′-biphenyl]-2-carbonyl)-3,6-diazabicyclo[3.1.1]heptan-6-yl)methyl)-6-fluoro-1-oxoisoindolin-2-yl)piperidine-2,6-dione] | 750 nM
O=C1CCC(N2Cc3cc(CN4C5CC4CN(C(=O)c4ccccc4-c4ccc(Cl)cc4)C5)cc(F)c3C2=O)C(=O)N1 (stereo not drawn) [GT-05668, 3-(5-((3-(4′-chloro-[1,1′-biphenyl]-2-carbonyl)-3,6-diazabicyclo[3.1.1]heptan-6-yl)methyl)-7-fluoro-1-oxoisoindolin-2-yl)piperidine-2,6-dione] | 650 nM
O=C1CCC(N2Cc3cc(CN4CC5CC(C4)N5C(=O)c4ccccc4-c4ccc(Cl)cc4)ccc3C2=O)C(=O)N1 (stereo not drawn) [GT-05669, 3-(5-((6-(4′-chloro-[1,1′-biphenyl]-2-carbonyl)-3,6-diazabicyclo[3.1.1]heptan-3-yl)methyl)-1-oxoisoindolin-2-yl)piperidine-2,6-dione] | 630 nM
CC1(C)CCC(CN2C3CC2CN(C(=O)c2ccc4c(c2)CN(C2CCC(=O)NC2=O)C4=O)C3)=C(c2ccc(F)cc2)C1 (stereo not drawn) [GT-05671, 3-(5-(6-((4′-fluoro-5,5-dimethyl-3,4,5,6-tetrahydro-[1,1′-biphenyl]-2-yl)methyl)-3,6-diazabicyclo[3.1.1]heptane-3-carbonyl)-1-oxoisoindolin-2-yl)piperidine-2,6-dione] | 300 nM
CC1(C)CC(c2ccc(Cl)cc2)=C(CN2CCN(C(=O)c3ccc4c(c3)CN(C3CCC(=O)NC3=O)C4=O)CC2)CO1 (stereo not drawn) [GT-05673, 3-(5-(4-((4-(4-chlorophenyl)-6,6-dimethyl-5,6-dihydro-2H-pyran-3-yl)methyl)piperazine-1-carbonyl)-1-oxoisoindolin-2-yl)piperidine-2,6-dione] | 1140 nM
CC1(C)CCC(C(=O)N2CC3(C2)CN(C(=O)c2ccc4c(c2)CN(C2CCC(=O)NC2=O)C4=O)C3)=C(c2ccc(Cl)cc2)C1 (stereo not drawn) [GT-05682, 3-(5-(6-(4′-chloro-5,5-dimethyl-3,4,5,6-tetrahydro-[1,1′-biphenyl]-2-carbonyl)-2,6-diazaspiro[3.3]heptane-2-carbonyl)-1-oxoisoindolin-2-yl)piperidine-2,6-dione] | 570 nM
O=C1CCC(N2Cc3cc(CN4CC5CC(C4)N5Cc4ccccc4-c4ccc(Cl)cc4)ccc3C2=O)C(=O)N1 (stereo not drawn) [GT-05704, 3-(5-((6-((4′-chloro-[1,1′-biphenyl]-2-yl)methyl)-3,6-diazabicyclo[3.1.1]heptan-3-yl)methyl)-1-oxoisoindolin-2-yl)piperidine-2,6-dione] | 680 nM
O=C1CCC(N2Cc3cc(C(=O)N4CC5CC(C4)N5Cc4ccccc4-c4ccc(Cl)cc4)ccc3C2=O)C(=O)N1 (stereo not drawn) [GT-05705, 3-(5-(6-((4′-chloro-[1,1′-biphenyl]-2-yl)methyl)-3,6-diazabicyclo[3.1.1]heptane-3-carbonyl)-1-oxoisoindolin-2-yl)piperidine-2,6-dione] | 880 nM
CC1(C)CCC(CN2CCC(Nc3ccc4c(c3)CN(C3CCC(=O)NC3=O)C4=O)CC2)=C(c2ccc(Cl)cc2)C1 (stereo not drawn) [GT-05782, 3-(5-((1-((4′-chloro-5,5-dimethyl-3,4,5,6-tetrahydro-[1,1′-biphenyl]-2-yl)methyl)piperidin-4-yl)amino)-1-oxoisoindolin-2-yl)piperidine-2,6-dione] | 1760 nM
CC1(C)CCC(C(=O)N2CCC(Nc3ccc4c(c3)CN(C3CCC(=O)NC3=O)C4=O)CC2)=C(c2ccc(Cl)cc2)C1 (stereo not drawn) [GT-05783, 3-(5-((1-(4′-chloro-5,5-dimethyl-3,4,5,6-tetrahydro-[1,1′-biphenyl]-2-carbonyl)piperidin-4-yl)amino)-1-oxoisoindolin-2-yl)piperidine-2,6-dione] | 940 nM
CC1(C)CCC(CN2CCC(Nc3ccc4c(c3)CN(C3CCC(=O)NC3=O)C4=O)CC2)=C(c2ccc(F)cc2)C1 (stereo not drawn) [GT-05785, 3-(5-((1-((4′-fluoro-5,5-dimethyl-3,4,5,6-tetrahydro-[1,1′-biphenyl]-2-yl)methyl)piperidin-4-yl)amino)-1-oxoisoindolin-2-yl)piperidine-2,6-dione] | 1250 nM
CC1(C)CCC(C(=O)N2CCC(Nc3ccc4c(c3)CN(C3CCC(=O)NC3=O)C4=O)CC2)=C(c2ccc(F)cc2)C1 (stereo not drawn) [GT-05786, 3-(5-((1-(4′-fluoro-5,5-dimethyl-3,4,5,6-tetrahydro-[1,1′-biphenyl]-2-carbonyl)piperidin-4-yl)amino)-1-oxoisoindolin-2-yl)piperidine-2,6-dione] | 1070 nM

From patent publication US20260028326A1, “COMPOUND BASED ON ISOINDOLINE-SUBSTITUTED GLUTARIMIDE BACKBONE AND USE THEREOF” (GLUETACS THERAPEUTICS (SHANGHAI) CO., LTD., priority 2022, published 2026)
